Counter-ions that a name gives are not always drawn.
System: Acinetobacter baumannii ATCC17961
Test: Antimicrobial susceptibility testing: 90% growth inhibitory concentration (IC90) determination
Format: cell-based
Settings: Acinetobacter baumannii, ATCC17961, 16 h, 90% growth inhibitory concentration against Acinetobacter baumannii ATCC17961, Iso-Sensitest broth, OD 600 nm over 16 h; read-out: ATCC 17961 IC90
How it was run: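 OD600 monitored each minute over 16 h at 35±2° C for bacteria (~5×10^5 CFU/mL final) in Iso-Sensitest medium with 10-point twofold compound series (e.g. 10-0.0195 μM final). Concentration giving 90% growth inhibition in log phase reported as IC90.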

| SMILES | IC90 [nM] |
| --- | --- |
| COCC1CN(C(=O)c2ccc(NC(=O)c3ncc(-c4cn(-c5ccc(N)cn5)nc4C(F)(F)F)n3C)cc2Cl)CCN1C(=O)C1CC[N+](CC(=O)O)(CC2CNC2)CC1 (stereo not shown) [Example 97, 2-[4-[4-[4-[[5-[1-(5-amino-2-pyridyl)-3-(trifluoromethyl)pyrazol-4-yl]-1-methyl-imidazole-2-carbonyl]amino]-2-chloro-benzoyl]-2-(methoxymethyl)piperazine-1-carbonyl]-1-(azetidin-3-ylmethyl)piperidin-1-ium-1-yl]acetic acid. 1:1 formate] | 1840 |
| Cn1c(-c2cn(-c3ccc4[nH]c(CCCO)cc4n3)nc2C(F)(F)F)cnc1C(=O)Nc1ccc(C(=O)N2CCN(C(=O)C3CC[N+](CCCN)(CC(=O)O)CC3)CC2)c(Cl)c1 (stereo not drawn) [Example 98, cis-2-[1-(3-aminopropyl)-4-[4-[2-chloro-4-[[5-[1-[2-(3-hydroxypropyl)-1H-pyrrolo[3,2-b]pyridin-5-yl]-3-(trifluoromethyl)pyrazol-4-yl]-1-methyl-imidazole-2-carbonyl]amino]benzoyl]piperazine-1-carbonyl]piperidin-1-ium-1-yl]acetic acid;chloride] | 387 |
| Cn1c(-c2cn(-c3ccc4[nH]c(CCC(N)=O)cc4n3)nc2C(F)(F)F)cnc1C(=O)Nc1ccc(C(=O)N2CCN(C(=O)[C@H]3CC[N@@+](CCCN)(CC(=O)O)CC3)CC2)c(Cl)c1 [Example 99, cis-2-[4-[4-[4-[[5-[1-[2-(3-amino-3-oxo-propyl)-1H-pyrrolo[3,2-b]pyridin-5-yl]-3-(trifluoromethyl)pyrazol-4-yl]-1-methyl-imidazole-2-carbonyl]amino]-2-chloro-benzoyl]piperazine-1-carbonyl]-1-(3-aminopropyl)piperidin-1-ium-1-yl]acetic acid;2,2,2-trifluoroacetate] | 361 |
| Cn1c(-c2cn(-c3ccc(N4CCOCC4)cc3F)nc2C(F)(F)F)cnc1C(=O)Nc1ccc(C(=O)N2CCN(C(=O)[C@H]3CC[N@@+](CCCN)(CC(=O)O)CC3)CC2)c(Cl)c1 [Example 100, cis-2-[1-(3-aminopropyl)-4-[4-[2-chloro-4-[[5-[1-(2-fluoro-4-morpholino-phenyl)-3-(trifluoromethyl)pyrazol-4-yl]-1-methyl-imidazole-2-carbonyl]amino]benzoyl]piperazine-1-carbonyl]piperidin-1-ium-1-yl]acetic acid;formate] | 195 |
| Cc1cc(NC(=O)c2ncc(-c3cn(-c4ccc5[nH]c([C@H](C)O)cc5n4)nc3C(F)(F)F)n2C)ccc1C(=O)N1CCN(C(=O)[C@H]2CC[N@@+](CCCN)(CC(=O)O)CC2)CC1 [Example 101, cis-2-[1-(3-aminopropyl)-4-[4-[4-[[5-[1-[2-[(1S)-1-hydroxyethyl]-1H-pyrrolo[3,2-b]pyridin-5-yl]-3-(trifluoromethyl)pyrazol-4-yl]-1-methyl-imidazole-2-carbonyl]amino]-2-methyl-benzoyl]piperazine-1-carbonyl]piperidin-1-ium-1-yl]acetic acid;chloride] | 338 |
| Cn1c(-c2cn(-c3ccc4[nH]c(C(CO)CO)cc4n3)nc2C(F)(F)F)cnc1C(=O)Nc1ccc(C(=O)N2CCN(C(=O)[C@H]3CC[N@@+](CCCN)(CC(=O)O)CC3)CC2)c(Cl)c1 [Example 102, cis-2-[1-(3-aminopropyl)-4-[4-[2-chloro-4-[[5-[1-[2-[2-hydroxy-1-(hydroxymethyl)ethyl]-1H-pyrrolo[3,2-b]pyridin-5-yl]-3-(trifluoromethyl)pyrazol-4-yl]-1-methyl-imidazole-2-carbonyl]amino]benzoyl]piperazine-1-carbonyl]piperidin-1-ium-1-yl]acetic acid;formate] | 445 |
| Cn1c(-c2cn(-c3ccc4c(cc(C(=O)N5CCOCC5)n4C)n3)nc2C(F)(F)F)cnc1C(=O)Nc1ccc(C(=O)N2CCN(C(=O)[C@H]3CC[N@@+](CCCN)(CC(=O)O)CC3)CC2)c(Cl)c1 [Example 103, cis-2-[1-(3-aminopropyl)-4-[4-[2-chloro-4-[[1-methyl-5-[1-[1-methyl-2-(morpholine-4-carbonyl)pyrrolo[3,2-b]pyridin-5-yl]-3-(trifluoromethyl)pyrazol-4-yl]imidazole-2-carbonyl]amino]benzoyl]piperazine-1-carbonyl]piperidin-1-ium-1-yl]acetic acid;formate] | 604 |
| Cn1c(-c2cn(-c3ccc4c(cc(C(=O)NCCO)n4C)n3)nc2C(F)(F)F)cnc1C(=O)Nc1ccc(C(=O)N2CCN(C(=O)[C@H]3CC[N@@+](CCCN)(CC(=O)O)CC3)CC2)c(Cl)c1 [Example 104, cis-2-[1-(3-aminopropyl)-4-[4-[2-chloro-4-[[5-[1-[2-(2-hydroxyethylcarbamoyl)-1-methyl-pyrrolo[3,2-b]pyridin-5-yl]-3-(trifluoromethyl)pyrazol-4-yl]-1-methyl-imidazole-2-carbonyl]amino]benzoyl]piperazine-1-carbonyl]piperidin-1-ium-1-yl]acetic acid;chloride] | 783 |
| Cn1c(-c2cn(-c3ccc4[nH]c([C@H](O)CO)cc4n3)nc2C(F)(F)F)cnc1C(=O)Nc1ccc(C(=O)N2CCN(C(=O)[C@H]3CC[N@+](CC(=O)O)(CC4CNC4)CC3)CC2)c(Cl)c1 [Example 105, cis-2-[1-(azetidin-3-ylmethyl)-4-[4-[2-chloro-4-[[5-[1-[2-[(1S)-1,2-dihydroxyethyl]-1H-pyrrolo[3,2-b]pyridin-5-yl]-3-(trifluoromethyl)pyrazol-4-yl]-1-methyl-imidazole-2-carbonyl]amino]benzoyl]piperazine-1-carbonyl]piperidin-1-ium-1-yl]acetic acid;2,2,2-trifluoroacetate] | 525 |
| Cn1c(-c2cn(-c3ccc4[nH]c([C@@H](O)CO)cc4n3)nc2C(F)(F)F)cnc1C(=O)Nc1ccc(C(=O)N2CCN(C(=O)[C@H]3CC[N@+](CC(=O)O)(CC4CNC4)CC3)CC2)c(Cl)c1 [Example 106, cis-2-[1-(azetidin-3-ylmethyl)-4-[4-[2-chloro-4-[[5-[1-[2-[(1R)-1,2-dihydroxyethyl]-1H-pyrrolo[3,2-b]pyridin-5-yl]-3-(trifluoromethyl)pyrazol-4-yl]-1-methyl-imidazole-2-carbonyl]amino]benzoyl]piperazine-1-carbonyl]piperidin-1-ium-1-yl]acetic acid;chloride] | 611 |
| CNc1ccc(-n2cc(-c3cnc(C(=O)Nc4ccc(C(=O)N5CCN(C(=O)[C@H]6CC[N@+](CC(=O)O)(CC7CNC7)CC6)CC5)c(C)c4)n3C)c(C(F)(F)F)n2)c(F)c1 [Example 107, cis-2-[1-(azetidin-3-ylmethyl)-4-[4-[4-[[5-[1-[2-fluoro-4-(methylamino)phenyl]-3-(trifluoromethyl)pyrazol-4-yl]-1-methyl-imidazole-2-carbonyl]amino]-2-methyl-benzoyl]piperazine-1-carbonyl]piperidin-1-ium-1-yl]acetic acid;2,2,2-trifluoroacetate] | 175 |
| CNc1ccc(-n2cc(-c3cnc(C(=O)Nc4ccc(C(=O)N5CCN(C(=O)[C@H]6CC[N@+](CC(=O)O)(CC7CNC7)CC6)CC5)c(F)c4)n3C)c(C(F)(F)F)n2)c(F)c1 [Example 108, cis-2-[1-(azetidin-3-ylmethyl)-4-[4-[2-fluoro-4-[[5-[1-[2-fluoro-4-(methylamino)phenyl]-3-(trifluoromethyl)pyrazol-4-yl]-1-methyl-imidazole-2-carbonyl]amino]benzoyl]piperazine-1-carbonyl]piperidin-1-ium-1-yl]acetic acid; 2,2,2-trifluoroacetate] | 58.7 |
| CN(C)c1ccc(-n2cc(-c3cnc(C(=O)Nc4ccc(C(=O)N5CCN(C(=O)[C@H]6CC[N@+](CC(=O)O)(CC7CNC7)CC6)CC5)c(F)c4)n3C)c(C(F)(F)F)n2)c(F)c1 [Example 109, cis-2-[1-(azetidin-3-ylmethyl)-4-[4-[4-[[5-[1-[4-(dimethylamino)-2-fluoro-phenyl]-3-(trifluoromethyl)pyrazol-4-yl]-1-methyl-imidazole-2-carbonyl]amino]-2-fluoro-benzoyl]piperazine-1-carbonyl]piperidin-1-ium-1-yl]acetic acid; 2,2,2-trifluoroacetate] | 213 |
| Cc1cc(NC(=O)c2ncc(-c3cn(-c4ccc(O)cc4F)nc3C(F)(F)F)n2C)ccc1C(=O)N1CCN(C(=O)[C@H]2CC[N@@+](CCCN)(CC(=O)O)CC2)CC1 [Example 110, cis-2-[1-(3-aminopropyl)-4-[4-[4-[[5-[1-(2-fluoro-4-hydroxy-phenyl)-3-(trifluoromethyl)pyrazol-4-yl]-1-methyl-imidazole-2-carbonyl]amino]-2-methyl-benzoyl]piperazine-1-carbonyl]piperidin-1-ium-1-yl]acetic acid. 1:1 2,2,2-trifluoroacetate] | 207 |
| COCCNc1ccc(-n2cc(-c3cnc(C(=O)Nc4ccc(C(=O)N5CCN(C(=O)[C@H]6CC[N@+](CC(=O)O)(CC7CNC7)CC6)CC5)c(C)c4)n3C)c(C(F)(F)F)n2)c(F)c1 [Example 111, cis-2-[1-(azetidin-3-ylmethyl)-4-[4-[4-[[5-[1-[2-fluoro-4-(2-methoxyethylamino)phenyl]-3-(trifluoromethyl)pyrazol-4-yl]-1-methyl-imidazole-2-carbonyl]amino]-2-methyl-benzoyl]piperazine-1-carbonyl]piperidin-1-ium-1-yl]acetic acid;2,2,2-trifluoroacetate] | 185 |
| Cn1c(-c2cn(-c3cc4[nH]c(C(=O)N5C[C@H]6CNC[C@H]6C5)cc4cn3)nc2C(F)(F)F)cnc1C(=O)Nc1ccc(C(=O)N2CCN(C(=O)[C@H]3CC[N@+](CC(=O)O)(CC4CNC4)CC3)CC2)c(Cl)c1 [Example 112, cis-2-[4-[4-[4-[[5-[1-[2-[(3aS,6aR)-2,3,3a,4,6,6a-hexahydro-1H-pyrrolo[3,4-c]pyrrole-5-carbonyl]-1H-pyrrolo[3,2-c]pyridin-6-yl]-3-(trifluoromethyl)pyrazol-4-yl]-1-methyl-imidazole-2-carbonyl]amino]-2-chloro-benzoyl]piperazine-1-carbonyl]-1-(azetidin-3-ylmethyl)piperidin-1-ium-1-yl]acetic acid. 1:1 2,2,2-trifluoroacetate] | 356 |

From patent US20250179066A1, “ZWITTERIONIC ANTIBACTERIAL COMPOUNDS” (Hoffmann-La Roche Inc., priority 2022, published 2025)
